Assay results taken from PMC6008465 (British Journal of Cancer, 2018).
pIC50: −log10 of the molar value.

Assays:
[1] = test system: patients with advanced solid tumours; assay: Phase 1 Part A (dose escalation): safety, DLT, MTD; type: in vivo, human; details: Part A
Method: The primary objectives of this phase 1 study were to evaluate the safety, tolerability, and MTD of once-weekly (Schedule I) and twice-weekly (Schedule II) dosing. Secondary objectives included evaluation of the PK profile of E6201. […] Toxicity was managed by dose interruption, reduction, and/or discontinuation. Only Cycle 1 adverse events (AEs) were evaluable as DLTs. Based on AEs reported at 480 mg/m^2 and 400 mg/m^2, the protocol was amended to include up to 6 additional toxicity-evaluable patients at 320 mg/m^2, to confirm this as the MTD. All ongoing patients could continue at 320 mg/m^2, regardless of initial starting dose.
Safety was assessed by monitoring AEs, serious AEs (SAEs), laboratory parameters, vital signs, 12-lead electrocardiograms (ECGs), Eastern Cooperative Oncology Group performance status, and symptom-directed physical and neurologic examination findings. AEs were graded by investigators based on the National Cancer Institute Common Terminology Criteria for Adverse Events, version 3.[16]

cyclin D1 = details: quoted in discussion, no reference given, cited from earlier work
IL-6 = details: quoted in discussion, no reference given, cited from earlier work
[2] = preclinical; cited from earlier work

CCNc1cc(O)c2c(c1)/C=C/C[C@H](O)[C@H](O)C(=O)/C=C\[C@@H](C)[C@H](C)OC2=O [E6201, (3S,4R,5Z,8S,9S,11E)-14-(ethylamino)-8,9,16-trihydroxy-3,4-dimethyl-3,4,9,19-tetrahydro-1H-2-benzoxacyclotetradecine-1,7 (8H)-dione]
Nausea TEAE incidence, All grades ([1]; 320 mg/m^2 (n=7)): 5 (71.4) n (%) | Nausea TEAE incidence, G≥3 ([1]; 320 mg/m^2 (n=7)): 1 (14.3) n (%) | Patients with a DLT (QTcF increase from baseline > 60 ms) and grade 2 CNS toxicities ([1]; 320 mg/m^2 (n=7)): One | Peripheral edema TEAE incidence, All grades ([1]; 320 mg/m^2 (n=7)): 1 (14.3) n (%) | Peripheral edema TEAE incidence, G≥3 ([1]; 320 mg/m^2 (n=7)): 1 (14.3) n (%) | Vomiting TEAE incidence, All grades ([1]; 320 mg/m^2 (n=7)): 4 (57.1) n (%) | Vomiting TEAE incidence, G≥3 ([1]; 320 mg/m^2 (n=7)): 0 n (%) | Patients with grade 3 bradycardia (unrelated to E6201) ([1]; 320 mg/m^2 group): one | Deaths (abnormal hepatic function, possibly related to E6201) ([1]; 320 mg/m^2 group, post-Cycle 1): 1 patient | Patients with CNS toxicity (grade 1 dizziness) treated conservatively as a DLT ([1]; 400 mg/m^2): 1 patient | Abdominal pain TEAE incidence, All grades ([1]; 400 mg/m^2 (n=1)): 0 n (%) | Abdominal pain TEAE incidence, G≥3 ([1]; 400 mg/m^2 (n=1)): 0 n (%) | Constipation TEAE incidence, All grades ([1]; 400 mg/m^2 (n=1)): 0 n (%) | Constipation TEAE incidence, G≥3 ([1]; 400 mg/m^2 (n=1)): 0 n (%) | Decreased appetite TEAE incidence, All grades ([1]; 400 mg/m^2 (n=1)): 0 n (%) | Decreased appetite TEAE incidence, G≥3 ([1]; 400 mg/m^2 (n=1)): 0 n (%) | Fatigue TEAE incidence, All grades ([1]; 400 mg/m^2 (n=1)): 0 n (%) | Fatigue TEAE incidence, G≥3 ([1]; 400 mg/m^2 (n=1)): 0 n (%) | Hypokalemia TEAE incidence, All grades ([1]; 400 mg/m^2 (n=1)): 1 (100) n (%) | Hypokalemia TEAE incidence, G≥3 ([1]; 400 mg/m^2 (n=1)): 1 (100) n (%) | Nausea TEAE incidence, All grades ([1]; 400 mg/m^2 (n=1)): 0 n (%) | Nausea TEAE incidence, G≥3 ([1]; 400 mg/m^2 (n=1)): 0 n (%) | Peripheral edema TEAE incidence, All grades ([1]; 400 mg/m^2 (n=1)): 0 n (%) | Peripheral edema TEAE incidence, G≥3 ([1]; 400 mg/m^2 (n=1)): 0 n (%) | Vomiting TEAE incidence, All grades ([1]; 400 mg/m^2 (n=1)): 0 n (%) | Vomiting TEAE incidence, G≥3 ([1]; 400 mg/m^2 (n=1)): 0 n (%) | Abdominal pain TEAE incidence, All grades ([1]; 480 mg/m^2 (n=4)): 1 (25.0) n (%) | Abdominal pain TEAE incidence, G≥3 ([1]; 480 mg/m^2 (n=4)): 0 n (%) | Constipation TEAE incidence, All grades ([1]; 480 mg/m^2 (n=4)): 2 (50.0) n (%) | Constipation TEAE incidence, G≥3 ([1]; 480 mg/m^2 (n=4)): 0 n (%) | Decreased appetite TEAE incidence, All grades ([1]; 480 mg/m^2 (n=4)): 1 (25.0) n (%) | Decreased appetite TEAE incidence, G≥3 ([1]; 480 mg/m^2 (n=4)): 0 n (%) | Fatigue TEAE incidence, All grades ([1]; 480 mg/m^2 (n=4)): 2 (50.0) n (%) | Fatigue TEAE incidence, G≥3 ([1]; 480 mg/m^2 (n=4)): 0 n (%) | Hypokalemia TEAE incidence, All grades ([1]; 480 mg/m^2 (n=4)): 2 (50.0) n (%) | Hypokalemia TEAE incidence, G≥3 ([1]; 480 mg/m^2 (n=4)): 0 n (%) | Nausea TEAE incidence, All grades ([1]; 480 mg/m^2 (n=4)): 1 (25.0) n (%) | Nausea TEAE incidence, G≥3 ([1]; 480 mg/m^2 (n=4)): 0 n (%) | Peripheral edema TEAE incidence, All grades ([1]; 480 mg/m^2 (n=4)): 0 n (%) | Peripheral edema TEAE incidence, G≥3 ([1]; 480 mg/m^2 (n=4)): 0 n (%) | Vomiting TEAE incidence, All grades ([1]; 480 mg/m^2 (n=4)): 1 (25.0) n (%) | Vomiting TEAE incidence, G≥3 ([1]; 480 mg/m^2 (n=4)): 0 n (%) | QTcF prolongation to >500 ms, patients ([1]; 480 mg/m^2, Cycle 2): one | Patients with DLTs ([1]; 480 mg/m^2, QTcF > 500 ms, grade 4 confusion, QTcF increase > 60 ms): 3 patients | Grade 3/4 ECG QT prolonged, patients ([1]; 2 patients): 8.0% | Grade 3/4 abdominal pain, patients ([1]; 2 patients): 8.0% | Grade 3/4 hyperbilirubinemia, patients ([1]; 2 patients): 8.0% | Grade 3/4 syncope, patients ([1]; 2 patients): 8.0% | Treatment-emergent SAEs other than death, patients ([1]; 8 patients): 32.0% | Grade 3/4 TEAEs, patients ([1]; 11 patients): 44.0% | QT prolongation reported as an AE (Grade 2/3, DLT, probably related), patients ([1]; 30-min infusion, three patients): 12.0% | Patients with ≥1 TEAE assessed as treatment-related ([1]; Eleven patients): 44.0% | Abdominal pain TEAE incidence, All grades ([1]; Total (N=25)): 6 (24.0) n (%) | Abdominal pain TEAE incidence, G≥3 ([1]; Total (N=25)): 2 (8.0) n (%) | Constipation TEAE incidence, All grades ([1]; Total (N=25)): 7 (28.0) n (%) | Constipation TEAE incidence, G≥3 ([1]; Total (N=25)): 0 n (%) | Decreased appetite TEAE incidence, All grades ([1]; Total (N=25)): 5 (20.0) n (%) | Decreased appetite TEAE incidence, G≥3 ([1]; Total (N=25)): 1 (4.0) n (%) | Fatigue TEAE incidence, All grades ([1]; Total (N=25)): 7 (28.0) n (%) | Fatigue TEAE incidence, G≥3 ([1]; Total (N=25)): 1 (4.0) n (%) | Hypokalemia TEAE incidence, All grades ([1]; Total (N=25)): 7 (28.0) n (%) | Hypokalemia TEAE incidence, G≥3 ([1]; Total (N=25)): 1 (4.0) n (%) | Nausea TEAE incidence, All grades ([1]; Total (N=25)): 9 (36.0) n (%) | Nausea TEAE incidence, G≥3 ([1]; Total (N=25)): 1 (4.0) n (%) | Peripheral edema TEAE incidence, All grades ([1]; Total (N=25)): 4 (16.0) n (%) | Peripheral edema TEAE incidence, G≥3 ([1]; Total (N=25)): 1 (4.0) n (%) | Vomiting TEAE incidence, All grades ([1]; Total (N=25)): 7 (28.0) n (%) | Vomiting TEAE incidence, G≥3 ([1]; Total (N=25)): 0 n (%) | QTcF increase of 30–60 ms from baseline, patients ([1]; five patients): 20.0% | QTcF prolongation to 450–500 ms, patients ([1]; five patients across dose groups): 20.0% | QTcF increase of >60 ms from baseline, patients ([1]; two patients): 8.0% | Maximum-tolerated dose (MTD) ([1]; 30-min IV infusion once-weekly for 3 weeks of a 28-day cycle): 320 mg/m^2 | IC50 for inhibition of cyclin D1 (cyclin D1): 1.87 ng/mL | pIC50 (cyclin D1; read-out: IC50 for inhibition of cyclin D1): 8.32 | IC50 for inhibition of spontaneous secretion of IL-6 (IL-6): 4.09 ng/mL | pIC50 (IL-6; read-out: IC50 for inhibition of spontaneous secretion of IL-6): 7.98 | t1/2 of E6201 [2]: 3 to 6 h
